Conditions: Liquid, Vibrating tube method

CCCCC(=O)OCC(COC(=O)CCCC)(COC(=O)CCCC)COC(=O)CCCC [pentaerythritol tetrapentanoate]
Conditions | mass density [kg/m3]
303.16 K, 794.63 kPa | 1011.4
303.16 K, 4758.7 kPa | 1013.9
303.16 K, 10737 kPa | 1017.8
303.16 K, 10776 kPa | 1017.7
303.16 K, 19666 kPa | 1023
303.16 K, 25722 kPa | 1026.7
303.16 K, 33332 kPa | 1030.7
303.16 K, 33572 kPa | 1030.8
303.16 K, 34311 kPa | 1031.2
303.16 K, 34317 kPa | 1031.3
303.16 K, 34322 kPa | 1031.4
303.16 K, 34329 kPa | 1031.2
303.16 K, 34349 kPa | 1031.2
323.14 K, 736.7 kPa | 995.1
323.14 K, 775.7 kPa | 995.1
323.14 K, 800.8 kPa | 995.2
323.14 K, 1023.7 kPa | 995.3
323.14 K, 1214.2 kPa | 995.6
323.14 K, 1242.9 kPa | 995.4
323.14 K, 1267.4 kPa | 995.5
323.14 K, 1292.7 kPa | 995.4
323.14 K, 1352.1 kPa | 995.6
323.14 K, 1554.7 kPa | 995.8
323.14 K, 1591.2 kPa | 995.7
323.14 K, 1625.4 kPa | 995.6
323.14 K, 1652.3 kPa | 995.8
323.14 K, 1677.1 kPa | 995.8
323.14 K, 1847.7 kPa | 995.8
323.14 K, 1899.2 kPa | 995.8
323.14 K, 1926.8 kPa | 996
323.14 K, 1959.1 kPa | 996
323.14 K, 1986.5 kPa | 996.1
323.14 K, 2181.7 kPa | 996.1
323.14 K, 2215.2 kPa | 996.1
323.14 K, 2249 kPa | 996.2
323.14 K, 2284.1 kPa | 996.3
323.14 K, 2935.8 kPa | 996.6
323.14 K, 2965.1 kPa | 996.7
323.14 K, 3225.9 kPa | 996.8
323.14 K, 3237 kPa | 996.9
323.14 K, 3248.4 kPa | 996.9
323.14 K, 3385 kPa | 996.9
323.14 K, 7926.5 kPa | 1000.3
323.14 K, 7971.9 kPa | 1000.2
323.14 K, 9459.5 kPa | 1001.1
323.14 K, 9766.4 kPa | 1001.5
323.14 K, 9799.5 kPa | 1001.4
323.14 K, 9832.9 kPa | 1001.5
323.14 K, 9906.9 kPa | 1001.6
323.14 K, 9941.6 kPa | 1001.6
323.14 K, 10052 kPa | 1001.6
323.14 K, 10094 kPa | 1001.7
323.14 K, 10244 kPa | 1001.9
323.14 K, 11507 kPa | 1002.6
323.14 K, 12708 kPa | 1003.4
323.14 K, 13903 kPa | 1004.3
323.14 K, 14014 kPa | 1004.2
323.14 K, 14206 kPa | 1004.4
323.14 K, 14241 kPa | 1004.3
323.14 K, 19359 kPa | 1007.7
323.14 K, 19418 kPa | 1007.7
323.14 K, 19454 kPa | 1007.7
323.14 K, 19485 kPa | 1007.9
323.14 K, 28758 kPa | 1013.5
323.14 K, 28848 kPa | 1013.6
323.14 K, 28889 kPa | 1013.5
323.14 K, 28930 kPa | 1013.6
323.14 K, 29171 kPa | 1013.8
323.14 K, 29205 kPa | 1013.9
323.14 K, 29234 kPa | 1013.8
323.14 K, 29268 kPa | 1014
323.14 K, 29296 kPa | 1013.9
323.15 K, 106.09 kPa | 994.8
323.15 K, 106.1 kPa | 994.7
323.15 K, 106.26 kPa | 994.6
323.15 K, 106.44 kPa | 994.7
323.15 K, 107.13 kPa | 994.6
323.15 K, 108 kPa | 994.6
323.15 K, 108.53 kPa | 994.7
323.15 K, 110.43 kPa | 994.6
323.15 K, 112.87 kPa | 994.7
323.15 K, 115.82 kPa | 994.7
323.15 K, 118.77 kPa | 994.7
323.15 K, 121.05 kPa | 994.6
323.15 K, 124.52 kPa | 994.7
323.15 K, 129.04 kPa | 994.6
323.15 K, 133.91 kPa | 994.8
323.15 K, 140.34 kPa | 994.7
323.15 K, 147.99 kPa | 994.8
323.15 K, 159.99 kPa | 994.7
323.15 K, 173.53 kPa | 994.6
323.15 K, 190.4 kPa | 994.6
323.15 K, 218.21 kPa | 994.8
323.15 K, 249.16 kPa | 994.8
323.15 K, 296.4 kPa | 994.7
323.15 K, 338.3 kPa | 994.8
323.15 K, 358.5 kPa | 994.8
323.15 K, 373.8 kPa | 994.9
323.15 K, 387.5 kPa | 994.7
323.15 K, 401.6 kPa | 994.8
323.15 K, 416.9 kPa | 994.9
323.15 K, 429 kPa | 995
323.15 K, 441.9 kPa | 995
323.15 K, 455.3 kPa | 995
323.15 K, 472.5 kPa | 994.9
323.15 K, 488.1 kPa | 994.9
323.15 K, 504.6 kPa | 995
323.15 K, 525.8 kPa | 995
323.15 K, 543.7 kPa | 995
323.15 K, 564 kPa | 995
323.15 K, 582.3 kPa | 995
323.15 K, 601.7 kPa | 995
323.15 K, 627.6 kPa | 995.1
323.15 K, 645.4 kPa | 995.1
323.15 K, 665.2 kPa | 995.1
323.15 K, 681.1 kPa | 995.1
323.15 K, 697.1 kPa | 995
323.15 K, 718 kPa | 995.2
323.15 K, 755.5 kPa | 995
323.15 K, 823.3 kPa | 995.1
323.15 K, 846.7 kPa | 995.1
323.15 K, 871.2 kPa | 995.4
323.15 K, 903.5 kPa | 995.2
323.15 K, 930.1 kPa | 995.3
323.15 K, 958.1 kPa | 995.3
323.15 K, 984.8 kPa | 995.4
323.15 K, 1006.3 kPa | 995.3
323.15 K, 1041.8 kPa | 995.4
323.15 K, 1060 kPa | 995.3
323.15 K, 1082.2 kPa | 995.4
323.15 K, 1101.7 kPa | 995.3
323.15 K, 1121.7 kPa | 995.4
323.15 K, 1146.9 kPa | 995.5
323.15 K, 1168.2 kPa | 995.4
323.15 K, 1191 kPa | 995.4
323.15 K, 1319.1 kPa | 995.2
323.15 K, 1380.2 kPa | 995.5
323.15 K, 1416.2 kPa | 995.6
323.15 K, 1447.4 kPa | 995.6
323.15 K, 1479.7 kPa | 995.8
323.15 K, 1512.7 kPa | 995.6
323.15 K, 1698.1 kPa | 995.8
323.15 K, 1720.3 kPa | 995.8
323.15 K, 1747.2 kPa | 995.8
323.15 K, 1770.3 kPa | 995.8
323.15 K, 1793.7 kPa | 995.8
323.15 K, 1822.9 kPa | 995.9
323.15 K, 1873.2 kPa | 995.9
323.15 K, 2015.2 kPa | 996.1
323.15 K, 2044.7 kPa | 996.1
323.15 K, 2080.6 kPa | 996
323.15 K, 2111.5 kPa | 996.1
323.15 K, 2143.5 kPa | 996.3
323.15 K, 2327.6 kPa | 996.2
323.15 K, 2364.9 kPa | 996.1
323.15 K, 2402.4 kPa | 996.3
323.15 K, 2448.3 kPa | 996.3
323.15 K, 2487.7 kPa | 996.4
323.15 K, 2528.3 kPa | 996.4
323.15 K, 2578.1 kPa | 996.3
